Experimental data published in PubChem BioAssay (NCI).
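Method: 48-hour compound exposure of cells in 96-well plates, five concentrations, linear interpolation of endpoints. At the TGI there is no net growth.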

Key:
Experiment in all cases: DTP human tumour cell line panel, 48 h
A498 renal = system: A498 renal
ACHN renal = system: ACHN renal
BT-549 breast = system: BT-549 breast
CAKI-1 renal = system: CAKI-1 renal
COLO 205 colon = system: COLO 205 colon
DMS 114 small cell lung = system: DMS 114 small cell lung
DMS 273 small cell lung = system: DMS 273 small cell lung
DU-145 prostate = system: DU-145 prostate
EKVX NSCLC = system: EKVX NSCLC
HCC-2998 colon = system: HCC-2998 colon
HCT-116 colon = system: HCT-116 colon
HCT-15 colon = system: HCT-15 colon
HL-60(TB) leukemia = system: HL-60(TB) leukemia
HOP-18 NSCLC = system: HOP-18 NSCLC
HOP-62 NSCLC = system: HOP-62 NSCLC
HOP-92 NSCLC = system: HOP-92 NSCLC
HS 578T breast = system: HS 578T breast
HT29 colon = system: HT29 colon
IGROV1 ovarian = system: IGROV1 ovarian
K-562 leukemia = system: K-562 leukemia
KM12 colon = system: KM12 colon
KM20L2 colon = system: KM20L2 colon
LOX IMVI melanoma = system: LOX IMVI melanoma
LXFL 529 NSCLC = system: LXFL 529 NSCLC
M14 melanoma = system: M14 melanoma
M19-MEL melanoma = system: M19-MEL melanoma
MALME-3M melanoma = system: MALME-3M melanoma
MDA-MB-231 breast = system: MDA-MB-231 breast
MDA-MB-435 = system: MDA-MB-435
MDA-N = system: MDA-N
MOLT-4 leukemia = system: MOLT-4 leukemia
NCI-H226 lung = system: NCI-H226 lung
NCI-H23 lung = system: NCI-H23 lung
NCI-H460 lung = system: NCI-H460 lung
NCI-H522 lung = system: NCI-H522 lung
OVCAR-3 ovarian = system: OVCAR-3 ovarian
OVCAR-4 ovarian = system: OVCAR-4 ovarian
OVCAR-5 ovarian = system: OVCAR-5 ovarian
OVCAR-8 ovarian = system: OVCAR-8 ovarian
PC-3 prostate = system: PC-3 prostate
RPMI-8226 leukemia = system: RPMI-8226 leukemia
RXF 393 renal = system: RXF 393 renal
RXF-631 renal = system: RXF-631 renal
SF-268 CNS = system: SF-268 CNS
SF-295 CNS = system: SF-295 CNS
SF-539 CNS = system: SF-539 CNS
SK-MEL-28 melanoma = system: SK-MEL-28 melanoma
SK-MEL-5 melanoma = system: SK-MEL-5 melanoma
SK-OV-3 ovarian = system: SK-OV-3 ovarian
SN12C renal = system: SN12C renal
SNB-19 CNS = system: SNB-19 CNS
SNB-75 CNS = system: SNB-75 CNS
SNB-78 CNS = system: SNB-78 CNS
SW-620 colon = system: SW-620 colon
T-47D breast = system: T-47D breast
U251 CNS = system: U251 CNS
UACC-257 melanoma = system: UACC-257 melanoma
UACC-62 melanoma = system: UACC-62 melanoma
UO-31 renal = system: UO-31 renal
XF 498 CNS = system: XF 498 CNS
786-0 renal = system: 786-0 renal
A549 NSCLC = system: A549 NSCLC
CCRF-CEM leukemia = system: CCRF-CEM leukemia
DLD-1 colon = system: DLD-1 colon
SK-MEL-2 melanoma = system: SK-MEL-2 melanoma
SR leukemia = system: SR leukemia
TK-10 renal = system: TK-10 renal

With `CC1OC(OC2CC(O)(C(=O)CO)Cc3c(O)c4c(c(O)c32)C(=O)c2ccccc2C4=O)CC(N)C1O` (configuration not stated) the TGI (A498 renal) was 0.0526 µM, the TGI (ACHN renal) was 0.134 µM and the TGI (BT-549 breast) was 4.03 µM. It also gave a TGI (CAKI-1 renal) of 0.088 µM, a TGI (COLO 205 colon) of 0.139 µM and a TGI (DMS 114 small cell lung) of 0.0412 µM. The TGI (DMS 273 small cell lung) was < 0.0278 µM, the TGI (DU-145 prostate) was 0.0836 µM and the TGI (EKVX NSCLC) was 1.82 µM. The TGI (HCC-2998 colon) was 0.084 µM, the TGI (HCT-116 colon) was 0.407 µM and the TGI (HCT-15 colon) was 1.99 µM. The TGI (HL-60(TB) leukemia) was < 0.0173 µM, the TGI (HOP-18 NSCLC) was 0.0358 µM and the TGI (HOP-62 NSCLC) was 0.0782 µM. The TGI (HOP-92 NSCLC) was 1.04 µM, the TGI (HS 578T breast) was 0.113 µM and the TGI (HT29 colon) was 0.493 µM. The TGI (IGROV1 ovarian) was 3.52 µM, the TGI (K-562 leukemia) was 9.2 µM and the TGI (KM12 colon) was 4.59 µM. For the same compound, the TGI (KM20L2 colon) was 0.779 µM, the TGI (LOX IMVI melanoma) was 0.029 µM and the TGI (LXFL 529 NSCLC) was 0.347 µM. For the same compound, the TGI (M14 melanoma) was 0.229 µM, the TGI (M19-MEL melanoma) was 0.15 µM and the TGI (MALME-3M melanoma) was 0.0864 µM. For the same compound, the TGI (MDA-MB-231 breast) was 7.4 µM, the TGI (MDA-MB-435) was 1.49 µM and the TGI (MDA-N) was 0.613 µM. The TGI (MOLT-4 leukemia) was < 0.0819 µM, the TGI (NCI-H226 lung) was < 0.0228 µM and the TGI (NCI-H23 lung) was 0.203 µM. It also gave a TGI (NCI-H460 lung) of 0.0366 µM, a TGI (NCI-H522 lung) of 0.1 µM and a TGI (OVCAR-3 ovarian) of 1.32 µM. The TGI (OVCAR-4 ovarian) was 3.15 µM, the TGI (OVCAR-5 ovarian) was 0.721 µM and the TGI (OVCAR-8 ovarian) was 12.4 µM. It also gave a TGI (PC-3 prostate) of 0.954 µM, a TGI (RPMI-8226 leukemia) of 0.235 µM and a TGI (RXF 393 renal) of 0.152 µM. For the same compound, the TGI (RXF-631 renal) was 0.213 µM, the TGI (SF-268 CNS) was 0.549 µM and the TGI (SF-295 CNS) was 0.0818 µM. It also gave a TGI (SF-539 CNS) of 0.121 µM, a TGI (SK-MEL-28 melanoma) of 0.368 µM and a TGI (SK-MEL-5 melanoma) of 0.0523 µM. It also gave a TGI (SK-OV-3 ovarian) of 0.142 µM, a TGI (SN12C renal) of 0.887 µM and a TGI (SNB-19 CNS) of 0.239 µM. For the same compound, the TGI (SNB-75 CNS) was 0.107 µM, the TGI (SNB-78 CNS) was 0.898 µM and the TGI (SW-620 colon) was 2.48 µM. The TGI (T-47D breast) was 0.134 µM, the TGI (U251 CNS) was 0.188 µM and the TGI (UACC-257 melanoma) was 0.326 µM. The TGI (UACC-62 melanoma) was 0.109 µM, the TGI (UO-31 renal) was 0.267 µM and the TGI (XF 498 CNS) was 0.588 µM.

In the case of `CN1OC2OC(=O)OC2[C@H]1[C@H]1O[C@H](c2ccccc2)OC1(C)c1cc(OC(=O)c2ccccc2)ccc1OC(=O)c1ccccc1` (some centres not stated), the TGI (786-0 renal) is reported as > 50 µM, the TGI (A549 NSCLC) is reported as > 50 µM and the TGI (ACHN renal) is reported as > 50 µM. The TGI (CAKI-1 renal) was > 50 µM, the TGI (CCRF-CEM leukemia) was > 50 µM and the TGI (COLO 205 colon) was > 50 µM. The TGI (DLD-1 colon) was > 50 µM, the TGI (DMS 114 small cell lung) was > 50 µM and the TGI (DMS 273 small cell lung) was > 50 µM. For the same compound, the TGI (EKVX NSCLC) was > 50 µM, the TGI (HCT-116 colon) was > 50 µM and the TGI (HCT-15 colon) was > 50 µM. For the same compound, the TGI (HL-60(TB) leukemia) was > 50 µM, the TGI (HOP-62 NSCLC) was > 50 µM and the TGI (HOP-92 NSCLC) was > 50 µM. The TGI (HT29 colon) was > 50 µM, the TGI (IGROV1 ovarian) was > 50 µM and the TGI (K-562 leukemia) was > 50 µM. For the same compound, the TGI (KM12 colon) was > 50 µM, the TGI (KM20L2 colon) was > 50 µM and the TGI (LOX IMVI melanoma) was > 50 µM. For the same compound, the TGI (LXFL 529 NSCLC) was > 50 µM, the TGI (M14 melanoma) was > 50 µM and the TGI (M19-MEL melanoma) was > 50 µM. The TGI (MALME-3M melanoma) was > 50 µM, the TGI (MOLT-4 leukemia) was > 50 µM and the TGI (NCI-H226 lung) was > 50 µM. The TGI (NCI-H23 lung) was > 50 µM, the TGI (NCI-H460 lung) was > 50 µM and the TGI (NCI-H522 lung) was > 50 µM. The TGI (OVCAR-3 ovarian) was > 50 µM, the TGI (OVCAR-4 ovarian) was > 50 µM and the TGI (OVCAR-5 ovarian) was > 50 µM. For the same compound, the TGI (OVCAR-8 ovarian) was > 50 µM, the TGI (RPMI-8226 leukemia) was > 50 µM and the TGI (RXF 393 renal) was > 50 µM. The TGI (RXF-631 renal) was > 50 µM, the TGI (SF-268 CNS) was > 50 µM and the TGI (SF-539 CNS) was > 50 µM. For the same compound, the TGI (SK-MEL-2 melanoma) was > 50 µM, the TGI (SK-MEL-28 melanoma) was > 50 µM and the TGI (SK-MEL-5 melanoma) was > 50 µM. For the same compound, the TGI (SK-OV-3 ovarian) was > 50 µM, the TGI (SN12C renal) was > 50 µM and the TGI (SNB-19 CNS) was > 50 µM. For the same compound, the TGI (SNB-75 CNS) was > 50 µM, the TGI (SNB-78 CNS) was > 50 µM and the TGI (SR leukemia) was > 50 µM. The TGI (SW-620 colon) was > 50 µM, the TGI (TK-10 renal) was > 50 µM and the TGI (U251 CNS) was > 50 µM. The TGI (UACC-257 melanoma) was > 50 µM, the TGI (UO-31 renal) was > 50 µM and the TGI (XF 498 CNS) was > 50 µM.

In the case of `BrC12c3ccccc3Sc3ccccc3C1(Br)c1ccccc12` (configuration not stated), the TGI (786-0 renal) is reported as > 100 µM, the TGI (A498 renal) is reported as 70.7 µM and the TGI (A549 NSCLC) is reported as > 100 µM. For the same compound, the TGI (ACHN renal) was > 100 µM, the TGI (CAKI-1 renal) was 72.9 µM and the TGI (CCRF-CEM leukemia) was 50.1 µM. For the same compound, the TGI (COLO 205 colon) was 76.3 µM, the TGI (DLD-1 colon) was > 100 µM and the TGI (DMS 114 small cell lung) was 64.8 µM. For the same compound, the TGI (DMS 273 small cell lung) was 87.2 µM, the TGI (HCC-2998 colon) was > 100 µM and the TGI (HCT-116 colon) was 52.1 µM. The TGI (HCT-15 colon) was 46.3 µM, the TGI (HL-60(TB) leukemia) was 29.1 µM and the TGI (HOP-18 NSCLC) was > 100 µM. The TGI (HOP-62 NSCLC) was 42.9 µM, the TGI (HOP-92 NSCLC) was 60.5 µM and the TGI (HT29 colon) was > 100 µM. The TGI (IGROV1 ovarian) was > 100 µM, the TGI (K-562 leukemia) was > 100 µM and the TGI (KM12 colon) was 38.9 µM. For the same compound, the TGI (KM20L2 colon) was 41.6 µM, the TGI (LOX IMVI melanoma) was 29.7 µM and the TGI (LXFL 529 NSCLC) was 59.7 µM. For the same compound, the TGI (M14 melanoma) was 28.8 µM, the TGI (M19-MEL melanoma) was > 100 µM and the TGI (MALME-3M melanoma) was > 100 µM. The TGI (MOLT-4 leukemia) was 35.8 µM, the TGI (NCI-H226 lung) was 38.7 µM and the TGI (NCI-H460 lung) was > 100 µM. For the same compound, the TGI (NCI-H522 lung) was 44.6 µM, the TGI (OVCAR-4 ovarian) was > 100 µM and the TGI (OVCAR-5 ovarian) was 86.2 µM. For the same compound, the TGI (OVCAR-8 ovarian) was > 100 µM, the TGI (RPMI-8226 leukemia) was 36.4 µM and the TGI (RXF 393 renal) was > 100 µM. The TGI (RXF-631 renal) was 98.8 µM, the TGI (SF-268 CNS) was > 100 µM and the TGI (SF-295 CNS) was 61.4 µM. The TGI (SF-539 CNS) was 34.6 µM, the TGI (SK-MEL-2 melanoma) was 34.5 µM and the TGI (SK-MEL-5 melanoma) was 30.8 µM. For the same compound, the TGI (SK-OV-3 ovarian) was > 100 µM, the TGI (SN12C renal) was 76.6 µM and the TGI (SNB-19 CNS) was > 100 µM. For the same compound, the TGI (SNB-75 CNS) was 95.8 µM, the TGI (SR leukemia) was 41.4 µM and the TGI (SW-620 colon) was > 100 µM. For the same compound, the TGI (TK-10 renal) was 99.6 µM, the TGI (U251 CNS) was 33.7 µM and the TGI (UACC-257 melanoma) was 86.3 µM. The TGI (UACC-62 melanoma) was 46.6 µM and the TGI (UO-31 renal) was > 100 µM.
